biological target: LRRK2 (Homo sapiens (Human), UniProt Q5S007, G2019S); assay: In Vitro LRRK2 LabChip Assay (LRRK2 Ki); assay type: biochemical
Protocol: In Vitro LRRK2 LabChip Assay This assay was used to determine a compound's potency in inhibiting activity of LRRK2 by determining, Kiapp, IC50, or percent inhibition values. In a polypropylene plate, LRRK2, fluorescently-labeled peptide substrate, ATP and test compound were incubated together. Using a LabChip 3000 (Caliper Life Sciences), after the reaction the substrate was separated by capillary electrophoresis into two populations: phosphorylated and unphosphorylated. The relative amounts of each were quantitated by fluorescence intensity. LRRK2 Ki was determined according to the equation: […]))). Ki values in Table 4 and elsewhere herein are shown in μM. […] Substrate: 5[…] Non-binding plate: 384 well clear V-bottom polypropylene plates (Greiner cat #781280). ATP: 10 mM ATP (Cell Signaling cat #9804). Triton X-100: Triton X-100. Brij-35: Brij-35 (Pierce cat #20150). […] DMSO: DMSO (Sigma cat #34869-100 ML). […] Compound Plate Preparation: For serial dilutions, 34.6 μl DMSO was added to columns 3-24. For the assay controls, 37.5 μl DMSO was added to columns 1 and 2 of rows A and […]-028831 (Staurosporine) was added to columns 1 and 2, row B. […] A Precision instrument was used to perform 1:3.16 serial dilutions (“PLK_BM_serial_halflog”). ATP Preparation: ATP was diluted to 282.1 μM in Complete Kinase Buffer (final concentration was 130 μM). […] Assay Procedure: To a 50 μl polypropylene plate, 5 μl/well buffer/substrate was added by hand to Blank wells. A Biomek FX was used to start the kinase reaction (“PLK SAR 23 ATP”). […] 5 μl/well kinase/substrate in Assay Plate; The plate was incubated for 2 hours in the dark. Biomek FX was used to stop the kinase reaction (“PLK Stop”), and 10 μl/well Stop solution was added to the Assay Plate.

Chain of LRRK2 (Q5S007 970-2527 G2019S): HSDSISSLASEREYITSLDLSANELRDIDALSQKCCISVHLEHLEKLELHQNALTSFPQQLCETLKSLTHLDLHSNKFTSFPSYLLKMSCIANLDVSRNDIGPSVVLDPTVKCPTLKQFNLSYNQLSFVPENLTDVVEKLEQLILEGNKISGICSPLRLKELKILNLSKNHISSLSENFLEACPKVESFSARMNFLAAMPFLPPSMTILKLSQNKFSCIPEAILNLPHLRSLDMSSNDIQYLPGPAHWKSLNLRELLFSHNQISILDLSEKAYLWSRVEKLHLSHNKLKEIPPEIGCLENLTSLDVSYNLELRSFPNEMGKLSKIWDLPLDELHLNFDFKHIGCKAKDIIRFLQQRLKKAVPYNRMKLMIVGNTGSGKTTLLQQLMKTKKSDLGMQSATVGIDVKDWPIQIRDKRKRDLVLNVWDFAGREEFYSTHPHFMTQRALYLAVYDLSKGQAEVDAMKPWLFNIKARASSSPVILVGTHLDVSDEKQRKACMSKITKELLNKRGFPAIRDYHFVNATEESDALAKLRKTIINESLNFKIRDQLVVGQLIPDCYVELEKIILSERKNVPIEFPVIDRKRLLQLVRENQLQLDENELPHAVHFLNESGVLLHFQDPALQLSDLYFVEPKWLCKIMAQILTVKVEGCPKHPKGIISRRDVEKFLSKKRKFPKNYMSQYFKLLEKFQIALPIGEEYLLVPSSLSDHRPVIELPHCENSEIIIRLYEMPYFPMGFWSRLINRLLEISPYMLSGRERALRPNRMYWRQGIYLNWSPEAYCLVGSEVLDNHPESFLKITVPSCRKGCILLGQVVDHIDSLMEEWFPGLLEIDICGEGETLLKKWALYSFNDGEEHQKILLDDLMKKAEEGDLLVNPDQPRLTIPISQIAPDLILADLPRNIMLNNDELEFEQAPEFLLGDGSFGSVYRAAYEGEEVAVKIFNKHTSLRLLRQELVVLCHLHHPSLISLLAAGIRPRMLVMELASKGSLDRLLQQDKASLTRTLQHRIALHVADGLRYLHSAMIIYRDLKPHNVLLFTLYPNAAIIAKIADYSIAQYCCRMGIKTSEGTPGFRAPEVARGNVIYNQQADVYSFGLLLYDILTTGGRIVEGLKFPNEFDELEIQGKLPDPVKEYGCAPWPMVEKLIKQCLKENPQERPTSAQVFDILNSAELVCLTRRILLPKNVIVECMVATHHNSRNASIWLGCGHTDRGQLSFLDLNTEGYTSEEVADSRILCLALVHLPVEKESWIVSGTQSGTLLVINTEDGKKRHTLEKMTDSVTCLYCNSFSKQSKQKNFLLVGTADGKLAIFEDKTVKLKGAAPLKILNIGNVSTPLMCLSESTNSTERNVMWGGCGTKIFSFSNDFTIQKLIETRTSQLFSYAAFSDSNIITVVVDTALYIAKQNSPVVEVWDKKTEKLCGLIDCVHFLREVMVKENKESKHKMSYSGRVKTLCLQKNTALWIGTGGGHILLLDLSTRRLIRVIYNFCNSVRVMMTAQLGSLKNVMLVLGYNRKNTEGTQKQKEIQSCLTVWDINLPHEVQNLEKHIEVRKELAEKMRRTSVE

| Ki [nM] | SMILES |
| --- | --- |
| 11 | CNc1nc(Nc2cc(OC)c(-c3cnn(C)c3)cc2Cl)ncc1C(F)(F)F [Compound 32, N^2-(2-chloro-5-methoxy-4-(1-methyl-1H-pyrazol-4-yl)phenyl)-N^4-methyl-5-(trifluoromethyl) pyrimidine-2,4-diamine] |
| 3 | CNc1nc(Nc2cc(F)c(-n3nnnc3C)cc2OC)ncc1C(F)(F)F [Compound 42, N2-(5-fluoro-2-methoxy-4-(5-methyl-1H-tetrazol-1-yl)phenyl)-N4-methyl-5-(trifluoromethyl) pyrimidine-2,4-diamine] |
| 1 | CNc1nc(Nc2cc(C)c(-n3nnnc3C)cc2OC)ncc1C(F)(F)F [Compound 45, N2-(2-methoxy-5-methyl-4-(5-methyl-1H-tetrazol-1-yl)phenyl)-N4-methyl-5-(trifluoromethyl) pyrimidine-2,4-diamine] |
| 2 | CNc1nc(Nc2ccc(-c3cnn(C)c3)cc2OC)ncc1Cl [Compound 35, 5-chloro-N^2-(2-methoxy-4-(1-methyl-1H-pyrazol-4-yl)phenyl)-N^4-methylpyrimidine-2,4-diamine] |

— patent US8791130B2, “Aminopyrimidine derivatives as LRRK2 modulators” (Genentech, Inc., priority 2011, dated 2014)
